Data taken from patent US20230114143A1, “METHOD OF TREATING THE SCALP” (Conopco, Inc., d/b/a UNILEVER, priority 2020, published 2023).
Where a name gives a salt, the structure may show the parent alone.

Assays:
[1] = test system: differentiated keratinocytes; test: Microarray gene expression in differentiated primary human epidermal keratinocytes dosed with piroctone olamine; type: cell-based; conditions: 7.5 µM, 24 hours
Method: Primary human epidermal keratinocytes were obtained from Lonza. Cells were cultured in monolayer in KGM-Gold medium. For the experiment keratinocytes were differentiated by incubating for five days in KGM-Gold medium supplemented with 1.2 mM calcium chloride. Piroctone olamine was supplied by Sigma. Differentiated keratinocyte cultures were dosed with 7.5 µM piroctone olamine and 0.1% ethanol (Group 1, n=4), or with 0.1% ethanol only (Group 2, n=4) and incubated for 24 hours. Cells were then lysed in RLT buffer and subjected to RNA extraction using Qiagen RNeasy Micro Kit according to manufacturer’s instructions. The levels of gene expression were determined using Agilent SurePrint G3 Human Gene Expression 8x60k v3 Microarrays in conjunction with Agilent SureHyb hybridisation and SureScan High-Resolution scanning technology, in accordance with manufacturer’s protocol. Microarray data processing and statistical analysis was carried out in Agilent GeneSpring GX14 software. To identify differentially expressed genes in piroctone olamine treated cultures (Group 1) compared to vehicle control cultures (Group 2), t-test was applied (p≤0.05) with or without Benjamini-Hochberg false discovery rate correction (FDR≤0.05).

[2] = test system: ex vivo human skin explants; test: RNA sequencing gene expression in NativeSkin ex vivo human skin explants treated topically with piroctone olamine; type: cell-based; conditions: 24 hours
Method: Human ex vivo skin model production and piroctone olamine treatment were conducted by Genoskin (France). NativeSkin models of 15 mm diameter ex vivo human skin explants with silicon rings were produced from three donors and cultured in NativeSkin culture medium under 5% CO2 humidified atmosphere in 37° C. Skin explants were treated topically with 50 ul of solution containing 30 uM piroctone olamine in PBS with 1% ethanol (Group 1, n=3), or control PBS solution containing 1% ethanol (Group 2, n=3), and were incubated for 24 hours. Following one day of topical treatment, piroctone olamine and control solutions were removed using cotton swabs and each model was unmolded from silicon ring and re-punch at 12 mm diameter. Half of each skin biopsy was processed for RNA using OMNI-TH Rotor Stator tissue homogeniser and Qiagen RNeasy Fibrous Tissue RNA Mini Kit according to manufacturer’s instructions. RNA sequencing was used for gene expression analysis. Lexogen QuantSeq3′ FWD libraries were prepared from RNA samples and sequenced via single read (1x75 bp) performed using NextSeq 500/550 Mid-Output Kit on the NextSeq 500 Illumina platform. FASTQ data files were then uploaded to the BlueBee genomic platform and read-trimming, alignment, and read count were performed using QuantSeq data processing pipeline. Differential gene expression analysis for Group 1/Group 2 comparison was run in Bluebee genomic platform using QuantSeq DE pipeline (FDR corrected p≤0.05).

[3] = vs 0.1% ethanol control, Comeodesmosome formation
[4] = vs 0.1% ethanol control, Cornified envelop formation
[5] = vs 0.1% ethanol control, Tight junction formation
[6] = 30 uM topical in PBS with 1% ethanol, vs control, Tight junction formation

Cc1cc(CC(C)CC(C)(C)C)n(O)c(=O)c1 (stereo not shown) [piroctone olamine, 1-hydroxy-4-methyl-6-(2,4,4-trimethylpentyl)-2(1H) pyridinone monoethanolamine salt]
gene expression of epidermal barrier biomarkers compared to control (in words) ([1]; differentiated keratinocytes): clear increase in gene expression
Fold Change (Group ⅟Group 2) gene expression, Desmocolin 2 (DSC2) [1, 3]: 2.49
Fold Change (Group ⅟Group 2) gene expression, Desmoglein 4 (DSG4) [1, 3]: 2.44
Fold Change (Group ⅟Group 2) gene expression, Plakophilin 1 (PKP1) [1, 3]: 1.75
Fold Change (Group ⅟Group 2) gene expression, Comeodesmosin (CDSN) ([1]; vs 0.1% ethanol control, Comeodesmosome formation, not significant): 1.20
Fold Change (Group ⅟Group 2) gene expression, Involucrin (IVL) [1, 4]: 1.40
Fold Change (Group ⅟Group 2) gene expression, Late cornified envelope 3A (LCE3A) [1, 4]: 2.58
Fold Change (Group ⅟Group 2) gene expression, Late cornified envelope 3B (LCE3B) [1, 4]: 1.67
Fold Change (Group ⅟Group 2) gene expression, Late cornified envelope 3C (LCE3C) [1, 4]: 2.71
Fold Change (Group ⅟Group 2) gene expression, Small proline-rich protein 2D (SPRR2D) [1, 4]: 1.52
Fold Change (Group ⅟Group 2) gene expression, Claudin 4 (CLDN4) [1, 5]: 1.76
Fold Change (Group ⅟Group 2) gene expression, Claudin 7 (CLDN7) [1, 5]: 1.65
Fold Change (Group ⅟Group 2) gene expression, Claudin 17 (CLDN17) [1, 5]: 2.99
Fold Change (Group ⅟Group 2) gene expression, Claudin 25 (CLDN25) [1, 5]: 2.05
Fold Change (Group ⅟Group 2) gene expression, Zona Occludens 1 (ZO1 (TJP1)) ([1]; vs 0.1% ethanol control, Tight junction formation, not significant): 1.3
Fold Change (Group 1/Group 2) gene expression, Involucrin (IVL) ([2]; 30 uM topical in PBS with 1% ethanol, vs control, Cornified envelop formation): 2.7
Fold Change (Group 1/Group 2) gene expression, Claudin 1 (CLDN 1) [2, 6]: 2.1
Fold Change (Group 1/Group 2) gene expression, Zona Occludens 2 (ZO2 (TJP2)) [2, 6]: 3.5
gene expression of epidermal barrier biomarkers compared to control (in words) ([2]; 30 uM topical, human skin explants): increase in gene expression
